Measured values taken from patent publication US20020122813A1, “Insect attractants” (priority 1999, published 2002).
“Also recorded” adds a separate entry of the source.

Columns and labels:
Anopheles gambiae s.s. = assay: wind tunnel landing bioassay on heated glass cylinders with filter papers; type: in vivo; details: for landing response compared to water control, comparative bioassay of α-oxo-carboxylic acids: FIG. 5, 6 replicates
Experimental: Trials used either Aedes aegypti or the Tanzanian KWA strain of Anopheles gambiae s.s., both obtained from the London School of Hygiene and Tropical Medicine. The rearing and bioassay rooms were maintained at 27° C. ±2° and 70% RH ±10%. […] To circumvent this problem we concentrated on investigating the landing responses of An gambiae s.s. on heated glass cylinders treated with sweat and sweat extracts. The bioassay was conducted in a wind tunnel^9 that was connected to 2 identical flight chambers, stainless steel frames 1.0 m long, covered in thin gauge plastic tubing and sealed at both ends with mosquito netting, FIG. 1. Twenty, 5-8 day old An gambiae s.s. females were introduced into each flight chamber. The mosquitoes were activated with 2 pulses of carbon dioxide, diluted with filtered air to give pulses of 0.1% above background. Activated mosquitoes flew upwind and approached heated (34° C., human skin temperature) glass cylinders to which strips of filter paper were attached. […] All bioassays began on the 3rd hour of the night period (21.00 h). To collect sweat, strips of filter paper were strapped around the leg, just above the ankle, of a human volunteer for 24 h. A strip of sweat impregnated filter paper was placed onto one cylinder and a filter paper dampened with […] of distilled water was placed onto the second, the control, cylinder The bioassay was repeated 6 times, the position of the sweat and the control filter papers alternated between bioassays. […] The response to the sweat declined during the bioassay, FIG. 3A, and is probably due to the evaporation of behaviourally active volatiles.

Aedes aegypti = assay: as above; type: in vivo; details: in water at 1 μg/μl; FIG. 4
Experimental: Trials used either Aedes aegypti or the Tanzanian KWA strain of Anopheles gambiae s.s., both obtained from the London School of Hygiene and Tropical Medicine. The rearing and bioassay rooms were maintained at 27° C. ±2° and 70% RH ±10%. The rearing room was kept on a 12/12 light dark cycle of 170 Wm^−2 and 0.3 Wm^−2 respectively with a 30 minute dusk period of 0.5 Wm^−2 at the day night interface.
To circumvent this problem we concentrated on investigating the landing responses of An gambiae s.s. on heated glass cylinders treated with sweat and sweat extracts. The bioassay was conducted in a wind tunnel^9 that was connected to 2 identical flight chambers, stainless steel frames 1.0 m long, covered in thin gauge plastic tubing and sealed at both ends with mosquito netting, FIG. 1. Twenty, 5-8 day old An gambiae s.s. females were introduced into each flight chamber. The mosquitoes were activated with 2 pulses of carbon dioxide, diluted with filtered air to give pulses of 0.1% above background. Activated mosquitoes flew upwind and approached heated (34° C., human skin temperature) glass cylinders to which strips of filter paper were attached. The number of mosquitoes landing per minute on each filter paper was recorded for 10 min by infra-red sensitive video cameras situated downwind of the flight chambers. All bioassays began on the 3rd hour of the night period (21.00 h). […]

Ae aegypti = details: structural activity relationship study of lactic acid analogues; cited from earlier work

SMILES: CCCC(=O)C(=O)O [2-oxopentanoic acid]
- landing response compared to water control, comparative bioassay of α-oxo-carboxylic acids (Anopheles gambiae s.s.): greatest response
- time of peak of landing response (Anopheles gambiae s.s.; during 10 min bioassay): 4 min
- total number of landings (TNL) (Anopheles gambiae s.s.; in water at 1 μg/μl vs water control): 352
- landing response compared to control (significance) (Anopheles gambiae s.s.; in water at 1 μg/μl vs water control, P<0.001): did elicit significant levels of landings
- landing response (significance) (Aedes aegypti): elicited significant levels of landings; also recorded: did elicit significant levels of landings
- attractiveness relative to lactic acid (Ae aegypti): as attractive as lactic acid

SMILES: CC(C)C(=O)C(=O)O [3-methyl,2-oxobutanoic acid]
- landing response compared to water control, comparative bioassay of α-oxo-carboxylic acids (Anopheles gambiae s.s.): did elicit significant levels of landings

SMILES: CCO [ethanol]
- total number of landings (TNL) (Anopheles gambiae s.s.; ethanol vs blank control): 141
- landing response compared to control (significance) (Anopheles gambiae s.s.; ethanol vs blank control, P>0.05): not a significant difference

SMILES: CC(O)C(=O)O (stereo not drawn) [lactic acid, L(+) lactic acid (2-hydroxypropanoic), reference compound]
- total number of landings (TNL) (Anopheles gambiae s.s.; in ethanol at 0.2 μg/μl vs ethanol control): 167
- landing response compared to control (significance) (Anopheles gambiae s.s.; in ethanol at 0.2 μg/μl vs ethanol control, P>0.05): did not elicit significant levels of landings

SMILES: CCC(=O)C(=O)O [oxobutanoic acid]
- landing response compared to water control, comparative bioassay of α-oxo-carboxylic acids (Anopheles gambiae s.s.): did elicit significant levels of landings

SMILES: CC(=O)C(=O)O [oxopropanoic acid]
- landing response compared to water control, comparative bioassay of α-oxo-carboxylic acids (Anopheles gambiae s.s.): did elicit significant levels of landings
